“Also recorded” adds a separate entry of the source. Read-outs that look alike come from different tables or passages of the source.
Assays:
[1] = tested on: N-type calcium channels (N-channels); type: binding, rats or mice; conditions: for IC50: omega-conotoxin binding, brain membrane fragments, read-out: N-channel IC50
[2] = biological target: L-type Ca2+ channel; experiment: inhibition of tritiated dihydropyridine PN-200 binding to the L-type Ca2+ channel; conditions: in words
Procedure: These tests were carried out as follows. Brain tissue was used from rats or mice that had been anesthetized with halothane and decapitated. Membrane fractions were prepared as follows. Tissue samples were mixed with 25 tissue-volumes of 50 mM Tris-HCl buffer, pH 7.5. Tissue-buffer mixtures were homogenized using a Brinkman Polytron homogenizer, and resulting tissue homogenate was centrifuged at 2,400 g to pellet non-membrane derived material. The supernatant containing the brain membrane fragments was centrifuged at 30,000 g in a refrigerated (4° C.) centrifuge for 20 minutes. The pellet was resuspended in 100 tissue-volumes of the Tris-HCl buffer and centrifuged again as above. The process was repeated two more times, and the resulting pellet was resuspended in Tris-HCl buffer solution. The suspended tissue contained synaptosomal and other neurally derived membrane fragments with intact N-channels.

[3] = tested on: CA1 neurons in hippocampal tissue slices; experiment: protection of rat hippocampal tissue slices (CA1 population spike recovery) against hypoxia; type: cell-based, Sprague-Dawley rats
[4] = tested on: PTZ-induced seizures; experiment: PTZ-induced seizures in mice (ICV); type: in vivo, Swiss Webster mice; conditions: for % having seizures: PTZ 70 mg/kg
Procedure: In addition to the in vivo gerbil experiments described in Example 4, aminoglycosides were tested in various ways to evaluate their ability to inhibit experimentally-induced seizures in mice. In one set of tests, male Swiss Webster white mice weighing 20-25 grams were used. The animals (10 per group) were pre-injected with 3 microliters (μL) of either a saline solution (control group), or saline solution containing varying dosages of neomycin sulfate. The injection was performed via the […] route, to insure access of the neomycin to neurons; when these experiments were initially performed, questions concerning the ability of neomycin to penetrate the BBB had not yet been addressed. These injections were performed as described in Haley and McCormick 1957. Twenty minutes after the injections, the animals were administered a dose of 70 mg/kg of the convulsion-inducing drug pentylenetetrazol (PTZ), injected subcutaneously in saline solution. Control animals treated with ICV saline have full seizures within seven minutes following this dose of PTZ.

[5] = tested on: electroconvulsive seizures; experiment: electroconvulsive seizures (ECS) in mice; conditions: ICV, scale one to six, six = no seizure activity
Procedure: This was accomplished using a set of platinum electrodes placed subcutaneously in two skull regions of Swiss Webster (20-25 gram) mice. The stimulus voltage was 22 mv at a duration of 0.125 mSec.
The seizures were graded on a severity scale of one to six. A score of six represented a complete absence of seizure activity, while a score of one represented the presence of a full tonic-clonic seizure with total hind leg extension. Test drugs were administered via the ICV route in a total volume of 2.5 microliters, 15 minutes prior to the administration of the electroconvulsive shock.

[6] = tested on: PTZ-induced seizures; experiment: PTZ-induced seizures in rats (ICV or IP); conditions: 2 mg/kg
Procedure: Seizure studies were also performed in male Sprague Dawley rats (250-300 grams). In these studies, cannulas were implanted in the lateral cerebral ventricles of several animals so that the test drugs could be administered directly into the lateral ventricle of the brain. The drugs being tested were administered 15 minutes before the administration of a convulsant drug, PTZ, at a dose of 60 mg/kg (in a saline vehicle) injected subcutaneously.
A second series of experiments was performed where neomycin sulfate was administered by the IP 30 minutes prior to PTZ injection.

[7] = tested on: blood platelets; experiment: inhibition of ADP-induced platelet aggregation; type: cell-based, human; conditions: 20 μM ADP, approximate results from initial tests
[8] = tested on: N-channels on blood platelets; type: binding, human; conditions: approximate results from initial tests, read-out: Conotoxin blockage
[9] = tested on: PTZ-induced seizures; conditions: in words; not measured in these tests; cited from earlier work

CN[C@@H]1[C@@H](O)[C@@H](O[C@@H]2[C@@H](O)[C@H](O[C@H]3OC(CN)=CC[C@H]3N)[C@@H](N)C[C@H]2N)OC[C@]1(C)O [Sisomicin]
N-channel blocking potency (in words) [1]: high potency | N-channel blocking potency (in words) ([1]; listed as sisomicin): most potent N-channel blockers | IC50 [1]: 5 to 10 µM | L-channel IC50 [2]: No inhibition | CA1 antidromic PS amplitude recovery ([3]; 1.0 mM, stimulated slices): 70±15% | CA1 orthodromic PS amplitude recovery ([3]; 1.0 mM, stimulated slices): 76±9% | CA1 antidromic PS recovery ([3]; 1.0 mM, unstimulated slices): 93±3% | CA1 orthodromic PS recovery ([3]; 1.0 mM, unstimulated slices): 93±3% | hypoxic injury potential (HIP) profile ([3]; in words): HIP profiles evolved with a time course similar to untreated slices | neuronal protection against hypoxia (summary) ([3]; in words): restore orthodromic and antidromic activity; also recorded: high level of neuronal protection against hypoxia

NCC[C@H](O)C(=O)N[C@@H]1C[C@H](N)[C@@H](O[C@H]2O[C@H](CN)[C@@H](O)[C@H](O)[C@H]2O)[C@H](O)[C@H]1O[C@H]1O[C@H](CO)[C@@H](O)[C@H](N)[C@H]1O [Amikacin]
IC50 [1]: 45 µM

NC[C@@H]1O[C@H](O[C@H]2[C@@H](O)[C@H](O[C@@H]3[C@@H](O)[C@H](N)C[C@H](N)[C@H]3O[C@H]3O[C@H](CO)[C@@H](O)[C@H](O)[C@H]3N)O[C@@H]2CO)[C@H](N)[C@@H](O)[C@@H]1O [Paromomycin]
IC50 [1]: 40 µM | L-channel IC50 [2]: No inhibition

NC[C@@H]1O[C@H](O[C@H]2[C@@H](O)[C@H](O[C@@H]3[C@@H](O)[C@H](N)C[C@H](N)[C@H]3O[C@H]3O[C@H](CO)[C@@H](O)C[C@H]3N)O[C@@H]2CO)[C@H](N)[C@@H](O)[C@@H]1O[C@H]1O[C@H](CO)[C@@H](O)[C@H](O)[C@@H]1O [Lividomycin A]
IC50 [1]: 50 µM | L-channel IC50 [2]: No inhibition

NC[C@H]1O[C@H](O[C@H]2[C@H](O)[C@@H](O[C@H]3O[C@H](CO)[C@@H](O)[C@H](N)[C@H]3O)[C@H](N)C[C@@H]2N)[C@H](N)C[C@@H]1O [Tobramycin]
IC50 [1]: > 50 µM

NC[C@@H]1O[C@H](O[C@H]2[C@@H](O)[C@H](O[C@@H]3[C@@H](O)[C@H](N)C[C@H](N)[C@H]3O[C@H]3O[C@H](CN)[C@@H](O)[C@H](O)[C@H]3N)O[C@@H]2CO)[C@H](N)[C@@H](O)[C@@H]1O.O=S(=O)(O)O [Neomycin Sulfate]
% having seizures ([4]; 5 μg ICV): 50% | % having seizures ([4]; 10 μg ICV): 60% | protection against seizures ([4]; five or ten micrograms ICV, in words): substantially protected against seizures

CNC1C(OC2C(OC3C(O)C(O)C(N=C(N)N)C(O)C3N=C(N)N)OC(C)C2(O)CO)OC(CO)C(O)C1O (stereo not drawn) [Dihydrostreptomicin]
IC50 [1]: > 50 µM

CN1C(=O)CN=C(c2ccccc2)c2cc(Cl)ccc21 [Diazepam]
Seizure Score ([5]; 5 ug): 4.4 | % having seizures [6]: 75%

CN[C@H]1C[C@@H](N)[C@H](O)[C@@H](O[C@@H]2O[C@H](CO)[C@H](O)[C@@H]3OC4(O[C@H]23)O[C@H]([C@@H](N)CO)[C@H](O)[C@H](O)[C@H]4O)[C@@H]1O (stereo partly drawn) [Hygromycin B]
IC50 [1]: > 1000 µM

C[C@H]1O[C@H](O[C@H]2[C@H](O)[C@@H](O)[C@@H](O)[C@H](O)[C@@H]2O)[C@@H](N)C[C@@H]1NC(=N)C(=O)O [Kasugamycin]
IC50 [1]: > 1000 µM

NC[C@H]1O[C@H](O[C@H]2[C@H](O)[C@@H](O[C@H]3O[C@H](CO)[C@@H](O)[C@H](N)[C@H]3O)[C@H](N)C[C@@H]2N)[C@H](N)[C@@H](O)[C@@H]1O [Bekanamycin]
IC50 [1]: > 100 µM | L-channel IC50 [2]: No inhibition

Butirosin
IC50 [1]: 150 µM

NC[C@H]1O[C@H](O[C@H]2[C@H](O)[C@@H](O[C@H]3O[C@H](CO)[C@@H](O)[C@H](N)[C@H]3O)[C@H](N)C[C@@H]2N)[C@H](O)[C@@H](O)[C@@H]1O [Kanamycin]
IC50 [1]: > 50 µM | L-channel IC50 [2]: No inhibition

NC[C@H]1O[C@H](O[C@H]2[C@H](O[C@@H]3O[C@H](CO)[C@@H](O)[C@H]3O)[C@@H](O)[C@H](N)C[C@@H]2N)[C@H](N)[C@@H](O)[C@@H]1O [Ribostamycin]
L-channel IC50 [2]: No inhibition

CNC1C(O)C(NC)C2OC3(O)C(=O)CC(C)OC3OC2C1O (stereo not drawn) [Spectiomycin]
IC50 [1]: > 1000 µM

[H]/N=C(/N)N[C@H]1[C@H](O)[C@@H](O)[C@H](O[C@@H]2O[C@@H](C)[C@](O)(C=O)[C@H]2O[C@@H]2O[C@@H](CO)[C@H](O)[C@@H](O)[C@@H]2NC)[C@@H](N/C(N)=N\[H])[C@@H]1O [Streptomycin]
N-channel blocking potency (in words) [1]: low potency | N-channel blocking potency (in words) ([1]; listed as streptomycin): somewhat less potent N-channel blocker | IC50 [1]: 25 µM | IC50 ([7]; Homo sapiens, Platelet): 5000 µM | L-channel IC50 [2]: No inhibition | IC50 [8]: 15 µM | protection of CA1 antidromic population spikes ([3]; 10 mM): 38±22% | neuronal protection against hypoxia (summary) ([3]; in words): ineffective in reducing hypoxic damage to hippocampal tissue slices except when administered in high dosages; also recorded: only marginally effective and required high doses | neuronal protection against hypoxia (summary) ([3]; in words, listed as streptomycin): some potency but at substantially lower levels; also recorded: lower degree of neuroprotection

NC[C@H]1O[C@H](O[C@H]2[C@H](O)[C@@H](O)[C@H](N)C[C@@H]2N)[C@H](N)[C@@H](O)[C@@H]1O [Neamine]
IC50 [1]: 25 µM

Gentamicin
Seizure Score ([5]; 40 ug): 4.9 | N-channel blocking potency (in words) [1]: intermediate | N-channel blocking potency (in words) ([1]; listed as gentamicin): most potent N-channel blockers | IC50 [1]: 10 µM | IC50 [7]: 2000 µM | IC50 [8]: 5 µM | CA1 orthodromic PS recovery ([3]; 2.5 mM, stimulated slices): 60±23% | neuronal protection against hypoxia (summary) ([3]; in words): restore orthodromic and antidromic activity; also recorded: high level of neuronal protection against hypoxia

NC[C@@H]1CC[C@@H](N)[C@@H](O[C@H]2[C@H](O)[C@@H](O[C@H]3O[C@H](CO)[C@@H](O)[C@H](N)[C@H]3O)[C@H](N)C[C@@H]2N)O1 [Dibekacin]
IC50 [1]: 60 µM | L-channel IC50 [2]: No inhibition

OC[C@H]1O[C@@H](n2cnc3c(NC4CCCCC4)ncnc32)[C@H](O)[C@@H]1O [Cyclohexyladenosine, cyclohexyladenosine]
known cardiovascular side effects [9]: known to provoke hypotension and bradycardia | % having seizures ([4]; 2 μg): 40% | behavioral side effects ([4]; in words): various behavioral side effects such as ataxia (lack of muscular control, as evidenced by an inability to walk properly) and sedation

Reference: patent US5677288A, “Use of aminoglycosides to protect against excitotoxic neuron damage” (Cypros Pharmaceutical Corporation, priority 1994, dated 1997)
